“And” between values parts separate entries of the source, which are not always exact repeats. Equal values may be shown once. ± gives the expanded uncertainty stated by the source.
Assays:
[1] = Crystal; DTA
[2] = Molar enthalpy of transition or fusion; conditions: Crystal; DSC

C=C(C)[C@@H]1CC[C@]2(CO)CC[C@]3(C)[C@H](CC[C@@H]4[C@@]5(C)CC[C@H](O)C(C)(C)[C@@H]5CC[C@]43C)[C@@H]12 [betulin]
Normal melting temperature [1]: 257.5 ± 2 °C and 255.0 ± 2 °C and 254.8 ± 2 °C | Molar enthalpy of transition or fusion [2]: 12.4 kcal/mol and 12.8 kcal/mol and 13.2 kcal/mol
